# Experimental data as given in paper PMC10214526, “Semisynthetic LC3 Probes for Autophagy Pathways Reveal a Noncanonical LC3 Interacting Region Motif Crucial for the Enzymatic Activity of Human ATG3” (ACS Central Science, 2023).
# Assays:
# [1] = molecular target: T1, ATG3 C1–GABARAP (probe 2) complex formation (Homo sapiens, UniProt O95166); test: Competition assay: LIR^ATG3 peptides vs cross-linking of GABARAP methyl fumarate probe 2 with ATG3 C1; format: biochemical; settings: probe 2 (15 μM) with ATG3 C1 in the presence of increasing amounts of peptide
# T1 construct: SUMO2 (N, cleaved yes); Mxe GyrA intein-His6 (C, cleaved yes); made in house; host or cells: E. coli Rosetta-CodonPlus (DE3)-RIL
# T1 sequence (O95166 1-115 limits assumed, one chain of several): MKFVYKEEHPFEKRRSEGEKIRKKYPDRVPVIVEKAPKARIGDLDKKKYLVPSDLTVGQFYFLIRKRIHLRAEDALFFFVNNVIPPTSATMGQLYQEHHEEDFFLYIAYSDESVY
# Protocol: To exclude an effect of LIR deletion on protein activity we performed a competition experiment with chemically prepared LIR (L94-H112) peptide 5. Probe 2 (15 μM) was incubated with ATG3 C1 in the presence of increasing amounts of 5. […] We also postulated that cyclization of the LIR peptide would recapitulate its β-sheet conformation and lead to tighter binding than the linear peptide due to preorganization.[37] […] Cyclic peptide 6 was prepared by solid-phase peptide synthesis followed by cyclization using selective cysteine alkylation (Figure S11).[39],[40] […] Additionally, we confirmed the interaction of LIR^ATG3 peptides with GABARAP and LC3A by fluorescence polarization (Figure 2e–g). LIR^ATG3-derived peptides bind to both LC3A and GABARAP. As indicated by the competition experiments, cyclic peptides bound markedly tighter to GABARAP and LC3A than the linear peptides. […]
# Figure 2 Characterization of LIR^ATG3. a. […] Quantification of competition assays shown in b and c. The amount of GABARAP–ATG3 C1 complex was quantified by gel-densitometry and normalized to the reaction without peptide for each gel. […] Fluorescence polarization binding-data of fluorescein-modified LIR^ATG3 peptide binding to GABARAP. […] Fluorescence polarization data of fluorescein-modified LIR^ATG3 peptide binding to LC3A. […]
# Farnung et al. Supplementary Information and monitored using LC-MS analysis. […]
# [2] = Circular dichroism spectroscopy of LIR^ATG3 peptides; format: physicochemical; settings: 700 μM peptide, 20 mM potassium phosphate pH 7.2, 20 °C, 180-300 nm, 5x averaged
# Source text: Farnung et al. Supplementary Information […]
# H Capping with O H Resin cleavage O H Cyclization O […]
# acid anhydride deprotection
# Figure S11. Preparation of cyclized LIRATG3 peptide 6. a, Synthetic scheme describing the preparation of 6.
# A cysteine residue is introduced at the C-terminus of the LIR motif. Following standard Fmoc-SPPS the LIR peptide is capped at its N-terminus with α-chloroacetic acid anhydride. Following resin cleavage, the peptide is cyclized by cysteine alkylation. b, Analytical RP-HPLC chromatograms showing the cyclization of the LIR […]
# peptide to provide 6. […] Middle chromatogram
# Figure S12. CD spectra of linear and cyclic LIR ATG3 peptides 5 and 6. CD spectra of LIRATG3 peptides 5 and 6 were recorded in 20 mM KPhos buffer (pH 7.2) at a concentration of 700 μM. Cyclized LIRATG3 peptide 6 […]
# nm and an increase in band intensity at 215 nm.
# Plasmid Supplier Identiﬁer Dilution
# Anti-ATG5 Cell-Signalling #D5F5U 1:1,000
# Anti-β-Actin Thermo-Fisher #BA3R 1:2,000
# Table S2 Antibodies used in this study.
# 2.9. Circular dichroism spectroscopy
# CD spectra were recorded on a JASCO J-1500 CD spectrometer in a 0.1 cm cuvette. Samples were measured in potassium phosphate (20 mM, pH 7.2) at 20 °C. Data were recorded between 180-300 nm with a measuring speed of 20 nm/min. Measurements were repeated (5x) and averaged.
# Background spectrum was recorded and subtracted from measured spectra. […]
substance,measurement,setting,value
Ac-LEAIIEEDDGDGGWVDTYHAGGGK-OH [compound 5],Block of ATG3 modification,[1],blocked ATG3 modification in a concentration-dependent manner
same,Secondary structure by CD,[2],not structured in solution
